Assay results taken from patent publication US8710237B2, “Small molecule inhibitors of kynurenine-3-monooxygenase” (The J. David Gladstone Institute, priority 2006, dated 2014).
Marks after values point to notes of the source that are not given here.

Tests used:
[1] = system: kynurenine-3-monooxygenase; experiment: KMO inhibition, radiometric assay (Erickson et al.); type: biochemical; conditions: 10 μM compound
Description: The KMO inhibiting activities of the compounds of the present invention were evaluated using standard methods. See Erickson et al., A Radiometric Assay for Kynurenine 3-Hydroxylase Based on the Release of ^3H2O During Hydroxylation of L-[3,5-^3H]-Kynurenine, Anal. Biochem. 1992, 205, 257-262, the disclosure of which is hereby incorporated by reference.
The IC50 value is the half maximal inhibitory concentration and represents the concentration of an inhibitor that is required for 50% inhibition of an enzyme activity and the percent inhibition measures the amount of enzyme activity inhibited at a given concentration of compound.

[2] = system: R6/2 model of Huntington's disease; experiment: Survival in a mouse model of Huntington's disease (FIG. 13); type: in vivo; conditions: R6/2 mice
Source text: The structure of the compound M is

3-HK in the brain = experiment: In vivo comparison: 3-HK in the brain after oral administration (FIG. 12)
Source text: The structure of the compound 61-8048 is as below:

## COc1ccc(S(=O)(=O)Nc2nc(-c3cccc([N+](=O)[O-])c3)c(CN3CCSCC3)s2)cc1OC
other
  melting point: 136 °C

## CCCN(C)Cc1sc(NS(=O)(=O)c2ccc(OC)c(OC)c2)nc1-c1cccc([N+](=O)[O-])c1 [G, 3,4-dimethoxy-N-[4-(3-nitrophenyl)-5-(methylpropylamino)methyl-1,3-thiazole-2-yl]benzenesulfonamide]
[1]
  % inhibition at 10 μM: 73%
other
  melting point: 143 to 145 °C

## CCN(CC)Cc1sc(NS(=O)(=O)c2ccc(OC)c(OC)c2)nc1-c1cccc([N+](=O)[O-])c1 [F, 3,4-dimethoxy-N-[4-(3-nitrophenyl)-5-(diethylamino)methyl-1,3-thiazole-2-yl]benzenesulfonamide]
[1]
  % inhibition at 10 μM: 74%
other
  melting point: 165 to 168 °C

## CCOC(=O)N(c1nc(-c2cccc([N+](=O)[O-])c2)cs1)S(=O)(=O)c1ccc(OC)c(OC)c1 [V, 3,4-dimethoxy-N-[4-(3-nitrophenyl)thiazol-2-yl]-N-(ethylcarboxylate)benzenesulfonamide]
[1]
  % inhibition at 10 μM: 84%

## COc1ccc(S(=O)(=O)Nc2nc(-c3cccc([N+](=O)[O-])c3)cs2)cc1OC [Compound 61-8048, 3,4-Dimethoxy-N-[4-(3-nitrophenyl)thiazol-2-yl]benzenesulfonamide, reference compound]
[2]; 100 mg/kg/day, not shown in the figure
  effect on survival: did not have a significant effect on survival
3-HK in the brain
  decrease of 3-HK in the brain: does not decrease

## COc1ccc(S(=O)(=O)Nc2nc(-c3cccc([N+](=O)[O-])c3)c(CN3CCCC3)s2)cc1OC [B, 3,4-dimethoxy-N-[4-(3-nitrophenyl)-5-(pyrrolidin-1-ylmethyl)-1,3-thiazole-2-yl]benzenesulfonamide]
[1]
  % inhibition at 10 μM: 9* %
other
  melting point: 198 to 200 °C

## COc1ccc(S(=O)(=O)Nc2nc(-c3cccc([N+](=O)[O-])c3)c(CN3CCN(C)CC3)s2)cc1OC [E, 3,4-dimethoxy-N-[4-(3-nitrophenyl)-5-((4-methylpiperazin-1-yl)methyl)-1,3-thiazole-2-yl]benzenesulfonamide]
[1]
  % inhibition at 10 μM: 6* %
other
  melting point: 215 to 217 °C

## COc1ccc(S(=O)(=O)Nc2nc(-c3cccc([N+](=O)[O-])c3)c(CN3CCCCC3)s2)cc1OC [C, 3,4-dimethoxy-N-[4-(3-nitrophenyl)-5-(piperidin-1-ylmethyl)-1,3-thiazole-2-yl]benzenesulfonamide]
[1]
  % inhibition at 10 μM: 24%

## COC(=O)N(c1nc(-c2cccc([N+](=O)[O-])c2)cs1)S(=O)(=O)c1ccc(OC)c(OC)c1 [W, 3,4-dimethoxy-N-[4-(3-nitrophenyl)thiazol-2-yl]-N-(methylcarboxylate)benzenesulfonamide]
[1]
  % inhibition at 10 μM: 85%

## COc1ccc(S(=O)(=O)N(C)c2nc(-c3cccc([N+](=O)[O-])c3)cs2)cc1OC [T, 3,4-dimethoxy-N-[4-(3-nitrophenyl)thiazol-2-yl]-N-(methyl)benzenesulfonamide]
[1]
  % inhibition at 10 μM: 52%

## COc1ccc(S(=O)(=O)N(CN2CCCCC2)c2nc(-c3cccc([N+](=O)[O-])c3)cs2)cc1OC [Compound M]
[2]
  magnitude of the effect of protection (survival): equal to or greater to that reported for any single agent administered in this model

## COc1ccc(S(=O)(=O)Nc2nc(-c3cccc([N+](=O)[O-])c3)c(CN(C)C)s2)cc1OC [A, 3,4-dimethoxy-N-[4-(3-nitrophenyl)-5-dimethylaminomethyl-1,3-thiazole-2-yl]benzenesulfonamide]
[1]
  % inhibition at 10 μM: 58%
other
  melting point: 203 °C

## COc1ccc(S(=O)(=O)Nc2nc(-c3cccc([N+](=O)[O-])c3)c(CN3CCOCC3)s2)cc1OC [D, 3,4-dimethoxy-N-[4-(3-nitrophenyl)-5-morpholinomethyl-1,3-thiazole-2-yl]benzenesulfonamide]
[1]
  % inhibition at 10 μM: 64%
other
  melting point: 143 °C

## CCOC(=O)CN(c1nc(-c2cccc([N+](=O)[O-])c2)cs1)S(=O)(=O)c1ccc(OC)c(OC)c1 [U, 3,4-dimethoxy-N-[4-(3-nitrophenyl)thiazol-2-yl]-N-[(ethylcarboxylate)methyl]benzenesulfonamide]
[1]
  % inhibition at 10 μM: 81%
